Experimental data from patent US20260207578A1, “COMPOUND BASED ON SULFUR/OXYGEN SUBSTITUTED GLUTARIMIDE-BASED ISOINDOLINONE SKELETON AND USE THEREOF” (Gluetacs Therapeutics (Shanghai) Co., LTD., priority 2022, published 2026).

Experiments:
[1] = target: T1, human Cereblon WT GST-tagged protein (Homo sapiens, UniProt Q96SW2); assay: CRBN-binding affinity, HTRF (CEREBLON BINDING kit); conditions: displacement of Thalidomide-Re reagent, 3 hours at room temperature
T1 construct: purchased CISBIO 64BDCRBNPEH
T1 sequence (Q96SW2 whole entry): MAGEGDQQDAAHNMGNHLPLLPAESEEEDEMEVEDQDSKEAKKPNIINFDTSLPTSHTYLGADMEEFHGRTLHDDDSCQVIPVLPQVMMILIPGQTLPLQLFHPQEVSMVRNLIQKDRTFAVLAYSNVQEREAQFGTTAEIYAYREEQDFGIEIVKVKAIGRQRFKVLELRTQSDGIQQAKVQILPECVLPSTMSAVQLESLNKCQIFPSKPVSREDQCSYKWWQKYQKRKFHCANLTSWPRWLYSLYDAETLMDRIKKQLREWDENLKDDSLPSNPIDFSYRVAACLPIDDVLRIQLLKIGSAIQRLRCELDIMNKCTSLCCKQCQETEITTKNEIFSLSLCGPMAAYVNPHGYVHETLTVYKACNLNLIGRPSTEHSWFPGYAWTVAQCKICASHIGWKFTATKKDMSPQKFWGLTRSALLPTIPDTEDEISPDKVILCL
Summary of the method: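 Compounds displace a thalidomide-Re tracer from GST-tagged human Cereblon WT, detected with an Eu-labelled anti-GST antibody by time-resolved fluorescence. Signal at 620 nm was normalised against solvent and blank controls.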

IKZF3 = target: T2, IKZF3 (Homo sapiens, UniProt Q96SW2+Q9UKT9); assay: Western-blot assay, substrate protein in hPBMCs; format: cell-based; conditions: hPBMC cells, 24 hours, tested at 50 nM and 500 nM, table does not say which
T2 construct: endogenous in cells; host or cells: human PBMCs (Milecell Biotechnologies)
Description: (§1) The effect of the compounds of the present disclosure on the expression of target proteins in cells was detected using conventional Western blot analysis.
(§2) Human peripheral blood mononuclear cells (hPBMCs) at a density of 1×10^6 cells/mL were thawed according to the PBMC Recovery Protocol (Milecell Biotechnologies Inc, Shanghai). The cells were then treated with the compounds of the present disclosure (including the compounds listed in Tables 1 and 2, and the Examples A1-A20 and 1-116 compounds) at concentrations of 50 nM and 500 nM.
(§3) Controls included a negative control (DMSO) and a positive control (the commercial immunomodulatory drug lenalidomide), both processed following the identical experimental protocol as the compounds of the present disclosure. After 24 hours of compounds treatment, cells were harvested and lysed in RIPA protein lysate containing phosphatase inhibitors on ice for 30-60 min, followed by centrifugation. The supernatant was aspirated as the extracted total cell protein. The protein concentration of the supernatant was determined using the conventional BCA (Bicinchoninic Acid) assay. The supernatant was then mixed with 4× SDS sample loading buffer, denatured at 95° C. for 5 minutes, and then subjected to SDS-PAGE electrophoresis on a polyacrylamide gel. Proteins were then transferred to a nitrocellulose (NC) membrane, blocked at room temperature for 1-2 h, and processed for antibody incubation and detection according to the manufacturer's instructions (Cell Signaling Technology).
(§4) Half-Maximal Degradation Concentration value (the drug concentration required for degrading proteins by 50%, abbreviated as DC50) reads method: comparing the grayscale values of Western blot bands from drug-treated samples with those from blank DMSO-treated controls, and identifying the drug concentration range at which the grayscale value is half that of the DMSO-treated control bands.
(§5) DC50 values can be calculated using ImageJ software to measure grayscale values of Western blot bands from drug-treated samples. The concentration-response curve is fitted to estimate the drug concentration corresponding to half the grayscale value.
(§6) Target protein remaining (%) refers to the percentage of target protein remaining in hPBMC cells after treatment with protein degrader compounds.
(§7) Calculation method for protein remaining (%): Use ImageJ software to measure grayscale values of Western blot bands from drug (protein degrader)-treated samples. The grayscale value of drug-treated bands is divided by that of internal control protein bands, and the resulting quotient is normalized to obtain the relative percentage of remaining target protein after protein degrader treatment.
(§8) Target protein degradation rate (%)=100%−target protein remaining (%).

IKZF2 = target: T3, IKZF2 (Homo sapiens, UniProt Q96SW2+Q9UKS7); assay: Western-blot assay, substrate protein in hPBMCs; format: cell-based; conditions: hPBMC cells, 24 hours, tested at 50 nM and 500 nM, table does not say which
T3 construct: endogenous in cells; host or cells: human PBMCs (Milecell Biotechnologies)
T3 sequence (Q9UKS7 whole entry): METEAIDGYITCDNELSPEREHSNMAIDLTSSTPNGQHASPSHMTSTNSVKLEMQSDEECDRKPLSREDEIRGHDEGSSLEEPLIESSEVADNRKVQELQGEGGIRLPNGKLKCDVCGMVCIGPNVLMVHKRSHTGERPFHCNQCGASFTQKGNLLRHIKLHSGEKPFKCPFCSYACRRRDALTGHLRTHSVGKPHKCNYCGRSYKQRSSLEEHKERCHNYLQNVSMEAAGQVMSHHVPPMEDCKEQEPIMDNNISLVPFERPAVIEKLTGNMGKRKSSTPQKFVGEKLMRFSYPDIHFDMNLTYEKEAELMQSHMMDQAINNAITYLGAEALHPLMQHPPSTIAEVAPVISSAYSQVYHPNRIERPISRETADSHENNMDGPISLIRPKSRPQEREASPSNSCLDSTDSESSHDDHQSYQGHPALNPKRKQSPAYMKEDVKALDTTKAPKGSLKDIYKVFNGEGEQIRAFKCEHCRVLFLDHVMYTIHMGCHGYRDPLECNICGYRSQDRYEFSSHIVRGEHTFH
T3 sequence (Q96SW2 whole entry): as the sequence (Q96SW2 whole entry) above
T3 sequence (Q16531 whole entry partner): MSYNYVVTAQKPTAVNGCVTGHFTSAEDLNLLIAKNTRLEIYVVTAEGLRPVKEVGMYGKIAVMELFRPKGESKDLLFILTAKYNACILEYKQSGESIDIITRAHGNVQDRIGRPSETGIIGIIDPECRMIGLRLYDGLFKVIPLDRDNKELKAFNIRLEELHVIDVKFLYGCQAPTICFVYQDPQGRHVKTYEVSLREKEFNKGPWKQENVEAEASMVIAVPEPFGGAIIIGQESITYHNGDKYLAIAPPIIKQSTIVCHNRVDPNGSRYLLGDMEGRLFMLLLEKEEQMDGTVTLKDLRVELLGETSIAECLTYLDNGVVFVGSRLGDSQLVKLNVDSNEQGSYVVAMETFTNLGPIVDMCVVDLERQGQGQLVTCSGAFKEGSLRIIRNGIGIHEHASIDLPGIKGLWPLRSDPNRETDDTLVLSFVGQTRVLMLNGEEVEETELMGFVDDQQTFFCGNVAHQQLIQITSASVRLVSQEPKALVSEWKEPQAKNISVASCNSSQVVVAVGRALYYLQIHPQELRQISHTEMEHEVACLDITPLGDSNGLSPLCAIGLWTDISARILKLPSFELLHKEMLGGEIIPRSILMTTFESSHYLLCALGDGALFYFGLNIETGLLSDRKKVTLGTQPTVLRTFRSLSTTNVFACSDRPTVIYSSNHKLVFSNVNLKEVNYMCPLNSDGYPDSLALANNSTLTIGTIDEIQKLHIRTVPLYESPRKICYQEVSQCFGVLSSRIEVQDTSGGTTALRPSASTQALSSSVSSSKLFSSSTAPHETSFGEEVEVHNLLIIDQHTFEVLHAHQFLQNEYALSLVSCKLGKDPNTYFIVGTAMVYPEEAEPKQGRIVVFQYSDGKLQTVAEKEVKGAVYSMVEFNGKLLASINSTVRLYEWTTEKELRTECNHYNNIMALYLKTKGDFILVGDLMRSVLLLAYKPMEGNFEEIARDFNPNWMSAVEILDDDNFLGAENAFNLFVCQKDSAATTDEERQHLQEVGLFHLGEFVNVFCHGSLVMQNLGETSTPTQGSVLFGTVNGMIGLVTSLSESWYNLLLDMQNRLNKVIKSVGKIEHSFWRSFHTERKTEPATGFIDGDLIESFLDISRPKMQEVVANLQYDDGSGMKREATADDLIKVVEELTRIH
Summary of the method: (§9)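 Thawed hPBMCs, 1×10^6 cells/mL; 24 h compound; RIPA + phosphatase inhibitor lysis, BCA-normalised loading, SDS-PAGE, NC transfer, immunodetection. Bands vs internal control → % remaining; DC50 = concentration at 50% of DMSO band intensity.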

GSPT1 = target: T4, GSPT1 (Homo sapiens, UniProt P15170+Q96SW2); assay: Western-blot assay, substrate protein in hPBMCs; format: cell-based; conditions: hPBMC cells, 24 hours, tested at 50 nM and 500 nM, table does not say which
T4 construct: endogenous in cells; host or cells: human PBMCs (Milecell Biotechnologies)
T4 sequence (P15170 whole entry): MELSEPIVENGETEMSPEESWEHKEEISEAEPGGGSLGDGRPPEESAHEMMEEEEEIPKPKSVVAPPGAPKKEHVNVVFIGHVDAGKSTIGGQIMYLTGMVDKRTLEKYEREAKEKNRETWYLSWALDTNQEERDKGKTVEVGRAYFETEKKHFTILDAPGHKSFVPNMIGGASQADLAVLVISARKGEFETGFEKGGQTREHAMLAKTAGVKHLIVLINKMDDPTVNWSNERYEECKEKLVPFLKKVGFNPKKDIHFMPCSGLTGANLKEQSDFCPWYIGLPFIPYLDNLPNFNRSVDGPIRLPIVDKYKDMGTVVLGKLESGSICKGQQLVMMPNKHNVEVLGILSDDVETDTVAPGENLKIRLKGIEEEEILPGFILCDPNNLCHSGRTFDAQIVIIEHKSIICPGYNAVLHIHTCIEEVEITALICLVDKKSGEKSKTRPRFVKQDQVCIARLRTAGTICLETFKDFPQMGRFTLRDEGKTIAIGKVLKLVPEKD
T4 sequence (Q96SW2 whole entry): as the sequence (Q96SW2 whole entry) above
T4 sequence (Q16531 whole entry partner): as the sequence (Q16531 whole entry partner) above
Summary of the method: as §9

CK1α = target: T5, CK1α (Homo sapiens, UniProt P48729+Q96SW2); assay: Western-blot assay, substrate protein in hPBMCs; format: cell-based; conditions: hPBMC cells, 24 hours, tested at 50 nM and 500 nM, table does not say which
T5 construct: endogenous in cells; host or cells: human PBMCs (Milecell Biotechnologies)
T5 sequence (P48729 whole entry): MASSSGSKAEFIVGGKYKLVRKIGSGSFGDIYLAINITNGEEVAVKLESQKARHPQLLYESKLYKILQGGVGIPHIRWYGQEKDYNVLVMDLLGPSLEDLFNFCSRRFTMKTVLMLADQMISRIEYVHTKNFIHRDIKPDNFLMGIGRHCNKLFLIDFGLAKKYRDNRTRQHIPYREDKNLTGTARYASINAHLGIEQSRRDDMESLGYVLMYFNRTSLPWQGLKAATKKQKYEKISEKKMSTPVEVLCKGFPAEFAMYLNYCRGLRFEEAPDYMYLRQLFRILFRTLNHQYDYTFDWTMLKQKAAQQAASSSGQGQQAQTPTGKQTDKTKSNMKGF
T5 sequence (Q96SW2 whole entry): as the sequence (Q96SW2 whole entry) above
T5 sequence (Q16531 whole entry partner): as the sequence (Q16531 whole entry partner) above
Summary of the method: as §9

Wee1 = target: T6, Wee1 (Homo sapiens, UniProt P30291+Q96SW2); assay: Western-blot assay, substrate protein in hPBMCs; format: cell-based; conditions: hPBMC cells, 24 hours, tested at 50 nM and 500 nM, table does not say which
T6 construct: endogenous in cells; host or cells: human PBMCs (Milecell Biotechnologies)
T6 sequence (P30291 whole entry): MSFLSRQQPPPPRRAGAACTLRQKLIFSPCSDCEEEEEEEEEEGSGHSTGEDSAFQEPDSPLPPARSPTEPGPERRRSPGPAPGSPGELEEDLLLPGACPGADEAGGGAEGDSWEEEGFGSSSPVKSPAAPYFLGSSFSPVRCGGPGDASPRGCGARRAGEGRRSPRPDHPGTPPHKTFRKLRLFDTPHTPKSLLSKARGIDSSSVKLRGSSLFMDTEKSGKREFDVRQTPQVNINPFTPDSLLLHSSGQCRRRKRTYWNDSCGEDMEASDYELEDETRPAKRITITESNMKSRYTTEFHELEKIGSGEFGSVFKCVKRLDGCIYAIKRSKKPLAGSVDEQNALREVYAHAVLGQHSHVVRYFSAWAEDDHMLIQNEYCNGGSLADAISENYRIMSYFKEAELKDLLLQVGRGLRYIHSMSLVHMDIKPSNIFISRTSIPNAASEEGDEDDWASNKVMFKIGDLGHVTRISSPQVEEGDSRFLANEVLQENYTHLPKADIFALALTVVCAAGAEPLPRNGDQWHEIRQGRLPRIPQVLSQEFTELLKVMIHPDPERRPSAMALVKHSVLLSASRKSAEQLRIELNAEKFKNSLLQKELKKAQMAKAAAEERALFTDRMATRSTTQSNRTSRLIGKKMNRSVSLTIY
T6 sequence (Q96SW2 whole entry): as the sequence (Q96SW2 whole entry) above
T6 sequence (Q16531 whole entry partner): as the sequence (Q16531 whole entry partner) above
Summary of the method: as §9

IKZF1 = target: T7, IKZF1 (Homo sapiens, UniProt Q13422+Q96SW2); assay: Western-blot assay, substrate protein in hPBMCs; format: cell-based; conditions: hPBMC cells, 24 hours, tested at 50 nM and 500 nM, table does not say which
T7 construct: endogenous in cells; host or cells: human PBMCs (Milecell Biotechnologies)
T7 sequence (Q13422 whole entry): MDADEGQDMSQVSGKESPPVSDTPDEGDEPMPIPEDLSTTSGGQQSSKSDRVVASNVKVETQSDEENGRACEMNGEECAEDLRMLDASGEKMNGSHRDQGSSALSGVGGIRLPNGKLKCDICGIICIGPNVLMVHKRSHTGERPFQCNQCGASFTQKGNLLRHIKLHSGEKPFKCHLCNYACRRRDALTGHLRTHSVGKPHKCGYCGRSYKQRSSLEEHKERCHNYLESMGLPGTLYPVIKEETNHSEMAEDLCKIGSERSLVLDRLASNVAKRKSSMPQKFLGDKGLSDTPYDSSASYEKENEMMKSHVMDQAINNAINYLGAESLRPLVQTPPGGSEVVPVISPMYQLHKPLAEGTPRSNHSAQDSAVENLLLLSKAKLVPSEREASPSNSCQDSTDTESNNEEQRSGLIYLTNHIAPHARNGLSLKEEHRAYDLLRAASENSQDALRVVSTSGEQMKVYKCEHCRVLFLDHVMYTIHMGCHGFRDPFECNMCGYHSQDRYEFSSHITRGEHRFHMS
T7 sequence (Q96SW2 whole entry): as the sequence (Q96SW2 whole entry) above
T7 sequence (Q16531 whole entry partner): as the sequence (Q16531 whole entry partner) above
Description: as §1, §2, §3, §4, §5, §6, §7, §8

Row | SMILES | IC50 [1] [µM] | substrate protein remaining % (IKZF3) | substrate protein remaining % (IKZF2) | substrate protein remaining % (GSPT1) | substrate protein remaining % (CK1α) | substrate protein remaining % (Wee1) | substrate protein remaining % (IKZF1)
1 | CC1(C)CCC(CN2CC(Oc3ccc4c(c3)C(=O)N(C3CCC(=O)NC3=O)C4)C2)=C(c2ccc(Cl)cc2)C1 (centres unmarked) [GT-06872, 3-(6-((1-((4′-chloro-5,5-dimethyl-3,4,5,6-tetrahydro-[1,1′-biphenyl]-2-yl)methyl)azetidin-3-yl)oxy)-1-oxoisoindolin-2-yl)piperidine-2,6-dione] | 1 to 1.9 | A (0%≤ substrate protein remaining % ≤80%) | A (0%≤ substrate protein remaining % ≤80%) | A (0%≤ substrate protein remaining % ≤80%) | A (0%≤ substrate protein remaining % ≤80%) | A (0%≤ substrate protein remaining % ≤80%) | 
2 | CC1(C)CCC(C(=O)N2C[C@H]3CC(Sc4ccc5c(c4)CN(C4CCC(=O)NC4=O)C5=O)C[C@@H]3C2)=C(c2ccc(Cl)cc2)C1 (stereo partly drawn) [GT-07022, 3-(5-(((3aS,6aS)-2-(4′-chloro-5,5-dimethyl-3,4,5,6-tetrahydro-[1,1′-biphenyl]-2-carbonyl)octahydro-cyclopenta[c]pyrrol-5-yl)thio)-1-oxoisoindolin-2-yl)piperidine-2,6-dione] | 0.5 to 1 | A (0%≤ substrate protein remaining % ≤80%) |  |  | A (0%≤ substrate protein remaining % ≤80%) |  | 
3 | CC1(C)CCC(C(=O)N2C[C@H]3CC(Sc4ccc5c(c4)CN(C4CCC(=O)NC4=O)C5=O)C[C@H]3C2)=C(c2ccc(Cl)cc2)C1 (stereo partly drawn) [GT-07015, 3-(5-(((3aR,6aS)-2-(4′-chloro-5,5-dimethyl-3,4,5,6-tetrahydro-[1,1′-biphenyl]-2-carbonyl)octahydro-cyclopenta[c]pyrrol-5-yl)thio)-1-oxoisoindolin-2-yl)piperidine-2,6-dione] | 0.5 to 1 | A (0%≤ substrate protein remaining % ≤80%) | A (0%≤ substrate protein remaining % ≤80%) |  |  |  | 
4 | O=C1CCC(N2Cc3cc(OC4CN(CC5=C(c6ccc(F)cc6)CCOC5)C4)ccc3C2=O)C(=O)N1 (centres unmarked) [GT-06560, 3-(5-((1-((4-(4-fluorophenyl)-5,6-dihydro-2H-pyran-3-yl)methyl)azetidin-3-yl)oxy)-1-oxoisoindolin-2-yl)piperidine-2,6-dione] | 0.5 to 1 | A (0%≤ substrate protein remaining % ≤80%) |  |  |  | A (0%≤ substrate protein remaining % ≤80%) | 
5 | CC1(C)CCC(CN2CCCC(Oc3ccc4c(c3)CN(C3CCC(=O)NC3=O)C4=O)CC2)=C(c2ccc(Cl)cc2)C1 (centres unmarked) [GT-06929, 3-(5-((1-((4′-chloro-5,5-dimethyl-3,4,5,6-tetrahydro-[1,1′-biphenyl]-2-yl)methyl)azepan-4-yl)oxy)-1-oxoisoindolin-2-yl)piperidine-2,6-dione] | 0.5 to 1 | A (0%≤ substrate protein remaining % ≤80%) | A (0%≤ substrate protein remaining % ≤80%) |  |  | A (0%≤ substrate protein remaining % ≤80%) | 

Second part, led by results:

Row | IC50 [1] [µM] | SMILES | substrate protein remaining % (IKZF3) | substrate protein remaining % (IKZF2) | substrate protein remaining % (GSPT1) | substrate protein remaining % (CK1α) | substrate protein remaining % (Wee1) | substrate protein remaining % (IKZF1)
6 | < 0.5 | O=C1CCC(N2Cc3cc(SC4CNC4)ccc3C2=O)C(=O)N1 (centres unmarked) [GT-03613, 3-(5-(azetidin-3-ylthio)-1-oxoisoindolin-2-yl)piperidine-2,6-dione] |  | A (0%≤ substrate protein remaining % ≤80%) | A (0%≤ substrate protein remaining % ≤80%) | A (0%≤ substrate protein remaining % ≤80%) | A (0%≤ substrate protein remaining % ≤80%) | A (0%≤ substrate protein remaining % ≤80%)
7 | 0.5 to 1 | O=C1CCC(N2Cc3cc(SC4CCN(C(c5ccccc5)c5ccccc5)CC4)ccc3C2=O)C(=O)N1 (centres unmarked) [GT-06184, 3-(5-((1-benzhydrylpiperidin-4-yl)thio)-1-oxoisoindolin-2-yl)piperidine-2,6-dione] | A (0%≤ substrate protein remaining % ≤80%) |  | A (0%≤ substrate protein remaining % ≤80%) |  |  | 
8 | < 0.5 | COc1ccc(C(c2ccc(OC)cc2)N2CC(Oc3ccc4c(c3)CN(C3CCC(=O)NC3=O)C4=O)C2)cc1 (centres unmarked) [GT-06959, 3-(5-((1-(bis(4-methoxyphenyl)methyl)azetidin-3-yl)oxy)-1-oxoisoindolin-2-yl)piperidine-2,6-dione] | A (0%≤ substrate protein remaining % ≤80%) |  | A (0%≤ substrate protein remaining % ≤80%) | A (0%≤ substrate protein remaining % ≤80%) | A (0%≤ substrate protein remaining % ≤80%) | 
9 | 0.5 to 1 | O=C1CCC(N2Cc3cc(SC4CN(Cc5ccc(-c6ccncc6)nc5)C4)ccc3C2=O)C(=O)N1 (centres unmarked) [GT-06808, 3-(5-((1-([2,4′-bipyridin]-5-ylmethyl)azetidin-3-yl)thio)-1-oxoisoindolin-2-yl)piperidine-2,6-dione] |  | A (0%≤ substrate protein remaining % ≤80%) |  | A (0%≤ substrate protein remaining % ≤80%) | A (0%≤ substrate protein remaining % ≤80%) | A (0%≤ substrate protein remaining % ≤80%)
10 | < 0.5 | O=C1CCC(N2Cc3cc(SC4CCN(C(=O)c5ccccc5-c5ccc(Cl)cc5)C4)ccc3C2=O)C(=O)N1 (centres unmarked) [GT-06181, 3-(5-((1-(4′-chloro-[1,1′-biphenyl]-2-carbonyl)pyrrolidin-3-yl)thio)-1-oxoisoindolin-2-yl)piperidine-2,6-dione] | A (0%≤ substrate protein remaining % ≤80%) |  | A (0%≤ substrate protein remaining % ≤80%) |  | A (0%≤ substrate protein remaining % ≤80%) | 
11 | 1 to 1.9 | O=C1CCC(N2Cc3cc(SC4CCNCC4)ccc3C2=O)C(=O)N1 (centres unmarked) [GT-03616, 3-(1-oxo-5-(piperidin-4-ylthio)isoindolin-2-yl)piperidine-2,6-dione] |  | A (0%≤ substrate protein remaining % ≤80%) | A (0%≤ substrate protein remaining % ≤80%) | A (0%≤ substrate protein remaining % ≤80%) |  | A (0%≤ substrate protein remaining % ≤80%)
12 | < 0.5 | O=C1CCC(N2Cc3cc(SC4CCC5(CC4)CCN(C(c4ccccc4)c4ccccc4)CC5)ccc3C2=O)C(=O)N1 (centres unmarked) [GT-06958, 3-(5-((3-benzhydryl-3-azaspiro[5.5]undecan-9-yl)thio)-1-oxoisoindolin-2-yl)piperidine-2,6-dione] | A (0%≤ substrate protein remaining % ≤80%) |  | A (0%≤ substrate protein remaining % ≤80%) | A (0%≤ substrate protein remaining % ≤80%) | A (0%≤ substrate protein remaining % ≤80%) | 
13 | < 0.5 | O=C1CCC(N2Cc3cc(OC4CN(C(c5ccccc5)c5ccccc5)C4)ccc3C2=O)C(=O)N1 (centres unmarked) [GT-06185, 3-(5-((1-benzhydrylazetidin-3-yl)oxy)-1-oxoisoindolin-2-yl)piperidine-2,6-dione] | A (0%≤ substrate protein remaining % ≤80%) | A (0%≤ substrate protein remaining % ≤80%) | A (0%≤ substrate protein remaining % ≤80%) |  |  | 
